Data: PubChem BioAssay AID248 (DTP/NCI, 2004)
Toxic doses and inconclusive results are not listed. No stated cut-off is given here; in the data, active means T/C of 150% or more; inactive means T/C below 125%.

System: L1210 leukemia ip in BDF1 mice, survival T/C
Assay: NCI In Vivo Anticancer Drug Screen. Data for tumor model L1210 Leukemia (intraperitoneal) in B6D2F1 (BDF1) mice
Conditions: endpoint: mean survival time, higher = longer survival
In short: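 Transplanted-tumor mice were given test agent; controls received vehicle only. Survival readings from the two groups were divided (treated over control).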

[1] = dose: 50.0 mg/kg/injection, schedule: Q01DX001 (ip), vehicle: saline
[2] = dose: 50.0 mg/kg/injection, schedule: Q01DX009 (ip), vehicle: saline
[3] = dose: 50.0 mg/kg/injection, schedule: Q04DX003 (ip), vehicle: saline with Tween-80
[4] = dose: 100.0 mg/kg/injection, schedule: Q04DX003 (ip), vehicle: saline with Tween-80
[5] = dose: 200.0 mg/kg/injection, schedule: Q04DX003 (ip), vehicle: saline with Tween-80
[6] = dose: 400.0 mg/kg/injection, schedule: Q04DX003 (ip), vehicle: saline with Tween-80
[7] = dose: 200.0 mg/kg/injection, schedule: Q01DX001 (ip), vehicle: other
[8] = dose: 400.0 mg/kg/injection, schedule: Q01DX001 (ip), vehicle: other
[9] = dose: 100.0 mg/kg/injection, schedule: Q01DX001 (ip), vehicle: saline
[10] = dose: 200.0 mg/kg/injection, schedule: Q01DX001 (ip), vehicle: saline
[11] = dose: 400.0 mg/kg/injection, schedule: Q01DX001 (ip), vehicle: saline
[12] = dose: 100.0 mg/kg/injection, schedule: Q01DX009 (ip), vehicle: saline with Tween-80
[13] = dose: 200.0 mg/kg/injection, schedule: Q01DX009 (ip), vehicle: saline with Tween-80
[14] = dose: 400.0 mg/kg/injection, schedule: Q01DX009 (ip), vehicle: saline with Tween-80
[15] = dose: 100.0 mg/kg/injection, schedule: Q01DX001 (ip), vehicle: carboxymethylcellulose (CMC)
[16] = dose: 200.0 mg/kg/injection, schedule: Q01DX001 (ip), vehicle: carboxymethylcellulose (CMC)
[17] = dose: 400.0 mg/kg/injection, schedule: Q01DX001 (ip), vehicle: carboxymethylcellulose (CMC)

Measured: T/C

COC(=O)c1ccc(NCC(C)(C)N)cc1
inactive: dose: 12.0 mg/kg/injection, schedule: Q01DX001 (ip), vehicle: saline 94 % of control | dose: 12.0 mg/kg/injection, schedule: Q01DX009 (ip), vehicle: saline 98 % of control | dose: 12.0 mg/kg/injection, schedule: Q04DX003 (ip), vehicle: saline 97 % of control | dose: 25.0 mg/kg/injection, schedule: Q01DX001 (ip), vehicle: saline 96 % of control | dose: 25.0 mg/kg/injection, schedule: Q01DX009 (ip), vehicle: saline 105 % of control | dose: 25.0 mg/kg/injection, schedule: Q04DX003 (ip), vehicle: saline 104 % of control | [1] 101 % of control | [2] 93 % of control | dose: 50.0 mg/kg/injection, schedule: Q04DX003 (ip), vehicle: saline 97 % of control

CCOC(=O)CCCN(C(=O)c1ccccc1)c1scc(-c2ccccc2)c1C(=O)OCC
inactive: [3] 92 % of control | [4] 95 % of control | [5] 94 % of control | [6] 103 % of control

CCNC(=O)N=C1SCCS1
inactive: dose: 100.0 mg/kg/injection, schedule: Q04DX002 (ip), vehicle: saline 118 % of control | dose: 200.0 mg/kg/injection, schedule: Q04DX002 (ip), vehicle: saline 118 % of control | dose: 400.0 mg/kg/injection, schedule: Q04DX002 (ip), vehicle: saline 96 % of control

CC[CH2][Sn]([Br])([CH2]CC(=O)OC)[CH2]CC(=O)OC
inactive: dose: 100.0 mg/kg/injection, schedule: Q04DX002 (ip), vehicle: saline with Tween-80 93 % of control | dose: 200.0 mg/kg/injection, schedule: Q04DX002 (ip), vehicle: saline with Tween-80 96 % of control

CC(=O)n1cc(/C=C2\N=C(c3cccc(Cl)c3)OC2=O)c2ccccc21
inactive: dose: 100.0 mg/kg/injection, schedule: Q01DX009 (ip), vehicle: Klucel (hydroxypropylcellulose) (HPC) 112 % of control | dose: 200.0 mg/kg/injection, schedule: Q01DX009 (ip), vehicle: Klucel (hydroxypropylcellulose) (HPC) 104 % of control | dose: 400.0 mg/kg/injection, schedule: Q01DX009 (ip), vehicle: Klucel (hydroxypropylcellulose) (HPC) 101 % of control

CN(C)c1ccc(/C=N\NC(=O)c2ccco2)cc1
inactive: [7] 93 % of control | [8] 90 % of control

NC(Cc1c[nH]c2cc(F)ccc12)C(=O)O (stereo unspecified)
inactive: dose: 100.0 mg/kg/injection, schedule: Q01DX009 (ip), vehicle: other 97 % of control | dose: 200.0 mg/kg/injection, schedule: Q01DX009 (ip), vehicle: other 96 % of control | dose: 400.0 mg/kg/injection, schedule: Q01DX009 (ip), vehicle: other 97 % of control

NC(N)=N/N=C\c1ccc(OCc2ccccc2)cc1
inactive: dose: 15.0 mg/kg/injection, schedule: Q01DX Z (ip), vehicle: saline 96 % of control | dose: 15.0 mg/kg/injection, schedule: Q01DX Z (oral), vehicle: saline 91 % of control | dose: 30.0 mg/kg/injection, schedule: Q01DX Z (ip), vehicle: saline 102 % of control | dose: 30.0 mg/kg/injection, schedule: Q01DX Z (oral), vehicle: saline 94 % of control | dose: 60.0 mg/kg/injection, schedule: Q01DX Z (oral), vehicle: saline 90 % of control | dose: 120.0 mg/kg/injection, schedule: Q01DX010 (oral), vehicle: saline 102 % of control | dose: 120.0 mg/kg/injection, schedule: Q01DX Z (oral), vehicle: saline 89 % of control | dose: 240.0 mg/kg/injection, schedule: Q01DX010 (oral), vehicle: saline 102 % of control | dose: 400.0 mg/kg/injection, schedule: Q01DX010 (oral), vehicle: saline 91 % of control

O=C(Cc1ccccc1)ONC(CCCCNC(=O)OCc1ccccc1)C(=O)Nc1ccc(Cc2ccc(NC(=O)C(CCCCNC(=O)OCc3ccccc3)NC(=O)OCc3ccccc3)cc2)cc1 (stereo unspecified)
inactive: [1] 95 % of control | [9] 95 % of control | [10] 95 % of control | [11] 95 % of control

Nc1c2ccccc2c[n+]2ccccc12
active: [2] 150 % of control | dose: 100.0 mg/kg/injection, schedule: Q01DX009 (ip), vehicle: saline 163 % of control

Cc1cc(C)c2[nH]c(=O)c(C)c(C)c2c1Br
inactive: dose: 100.0 mg/kg/injection, schedule: Q01DX001 (ip), vehicle: other 102 % of control | [7] 94 % of control | [8] 100 % of control

N=C(N=C(N)N)N1CCOCC1
inactive: [12] 101 % of control | [4] 105 % of control | [13] 98 % of control | [5] 112 % of control | [14] 103 % of control | [6] 104 % of control

CC(=O)Oc1ccc(CCN=C(c2ccccc2)c2ccccc2)cc1OC(C)=O
inactive: [9] 107 % of control | [10] 104 % of control | [11] 100 % of control

CC1=CC(O)CCC1 (stereo unspecified)
inactive: [4] 104 % of control | [5] 109 % of control | [6] 93 % of control

O=NN(CCCl)C(=O)Nc1cc(Cl)ccc1O
inactive: dose: 1.0 mg/kg/injection, schedule: Q01DX001 (ip), vehicle: carboxymethylcellulose (CMC) 116 % of control | dose: 2.0 mg/kg/injection, schedule: Q01DX001 (ip), vehicle: carboxymethylcellulose (CMC) 110 % of control | dose: 4.0 mg/kg/injection, schedule: Q01DX001 (ip), vehicle: carboxymethylcellulose (CMC) 116 % of control | dose: 44.0 mg/kg/injection, schedule: Q01DX009 (ip), vehicle: carboxymethylcellulose (CMC) 100 % of control | dose: 66.0 mg/kg/injection, schedule: Q01DX001 (ip), vehicle: carboxymethylcellulose (CMC) 111 % of control | dose: 66.0 mg/kg/injection, schedule: Q01DX009 (ip), vehicle: carboxymethylcellulose (CMC) 90 % of control | [15] 114 % of control | dose: 100.0 mg/kg/injection, schedule: Q01DX009 (ip), vehicle: carboxymethylcellulose (CMC) 95 % of control | dose: 150.0 mg/kg/injection, schedule: Q01DX001 (ip), vehicle: carboxymethylcellulose (CMC) 111 % of control | [16] 115 % of control | dose: 225.0 mg/kg/injection, schedule: Q01DX001 (ip), vehicle: carboxymethylcellulose (CMC) 123 % of control | [17] 116 % of control | dose: 800.0 mg/kg/injection, schedule: Q01DX001 (ip), vehicle: carboxymethylcellulose (CMC) 118 % of control

CN(C)C(=O)c1ccc[n+](Cc2ccc(Cl)c(Cl)c2)c1
inactive: dose: 100.0 mg/kg/injection, schedule: Q04DX003 (ip), vehicle: saline 88 % of control

CNc1nc(N)c(N=O)c(Nc2ccc(Br)cc2)n1
inactive: [15] 102 % of control | [16] 104 % of control | [17] 102 % of control

CC(C)CCS(=O)CCC(C)C
inactive: [12] 96 % of control | [4] 105 % of control | [13] 96 % of control | [5] 120 % of control | [14] 100 % of control | [6] 97 % of control

CCCCCCCCCCCCCC[N+](C)(C)Cc1cc(=O)c(O)co1
inactive: dose: 12.5 mg/kg/injection, schedule: Q01DX015 (ip), vehicle: saline 97 % of control | dose: 25.0 mg/kg/injection, schedule: Q01DX015 (ip), vehicle: saline 102 % of control | dose: 25.0 mg/kg/injection, schedule: Q04DX003 (ip), vehicle: saline with Tween-80 97 % of control | dose: 50.0 mg/kg/injection, schedule: Q01DX015 (ip), vehicle: saline 96 % of control | [3] 101 % of control | dose: 100.0 mg/kg/injection, schedule: Q01DX015 (ip), vehicle: saline 106 % of control | dose: 100.0 mg/kg/injection, schedule: Q04DX003 (ip), vehicle: Klucel (hydroxypropylcellulose) (HPC) 87 % of control | [4] 101 % of control

O=Cc1cc(=O)[nH]c(=O)[nH]1
inactive: [1] 109 % of control | [9] 109 % of control | [10] 105 % of control | [11] 97 % of control

COS(=O)(=O)c1ccc(Cl)c([N+](=O)[O-])c1
inactive: dose: 0.38 mg/kg/injection, schedule: Q01DX009 (ip), vehicle: saline 97 % of control | dose: 0.75 mg/kg/injection, schedule: Q01DX009 (ip), vehicle: saline 102 % of control | dose: 0.75 mg/kg/injection, schedule: Q04DX003 (ip), vehicle: saline with Tween-80 101 % of control | dose: 1.5 mg/kg/injection, schedule: Q01DX009 (ip), vehicle: saline 97 % of control | dose: 1.5 mg/kg/injection, schedule: Q04DX003 (ip), vehicle: saline with Tween-80 90 % of control
